Measurements taken from US11583516B2, “Dash inhibitors, and uses related thereto” (Trustees of Tufts College, priority 2016, dated 2023).
Where two headings read alike, the source gives them in different places.

Experiments:
[1] = Maximum tolerated dose study (single dose); assay type: in vivo, Sprague Dawley rats; conditions: with Pyrrophenone or AACOCF3, based on serum drug levels
Source text: Bars show the MTD single dose in SD rats prior to seeing animal death. […] See also FIG. 33 for a similar comparison using cPLA2 inhibitors instead of COX inhibitors.
Bars show the MTD single dose in SD rats prior to seeing animal death. Based on serum drug levels, the addition of a cPLA2 inhibitors to the I-DASH inhibitor increases that MTD dose by at least 20-fold.
Bars show the MTD single dose in SD rats prior to seeing animal death.

AML cell lines = assay: AML cell line sensitivity, summary over the panel; assay type: cell-based; conditions: most of these AML cell lines
Protocol: (§1) SET-2, RS4;11, and SKM-1 cells were purchased from DSMZ. HL-60, MV4;11, OCI-AML2, NB4, MOLM-13, NOMO-1, DAOY, HEL, IMR-5, K562, Kasumi-1, ONS-76, RDES-1, and TC-71 cells were a gift from Alex Kentsis and verified using STR genotyping (Genetica). […] MCF-7, Jurkat, THP-1, U937, HL-60, MV4;11, OCI-AML2, NB4, MOLM-13, NOMO-1, HEL, K562, SET-2, RS4;11, SKM-1 and Kasumi-1 were grown in RPMI-1640 medium with 10% FBS. All cells were grown at 37° C. in a 5% CO2 incubator. Cell lines were tested for mycoplasma using the MycoAlert Mycoplasma Detection Kit (Lonza).
(§2) Cells were plated (2000 cells/well) in white, 384-well clear bottom plates using an EL406 Microplate Washer/Dispenser (BioTek) in 25 μL final volume of media. Compounds were added using a pintool (CyBio) and cells were incubated for 48 h at 37° C. Assay plates were then removed from the incubator and allowed to equilibrate to room temperature on the bench top before addition of 10 μL of CellTiter-Glo reagent (Promega) according to the manufacturer's instructions. Assay plates were shaken on an orbital shaker for 2 minutes and incubated at room temperature on the bench top for 10 minutes. Luminescence was then read using a Cytation 5 Cell Imaging Multi-Mode Reader (BioTek). (FIG. 6)

MOLM-13 cells = assay: Cell line drug sensitivity (CellTiter-Glo); assay type: cell-based; conditions: MOLM-13, AML M5; 48 h; read-out: IC50
Protocol: as §1, §2

HEL cells = assay: Cell line drug sensitivity (CellTiter-Glo); assay type: cell-based; conditions: AML/Erythroleukemis M6, 48 h, read-out: IC50
Protocol: as §1, §2

U937 cells = assay: Cell line drug sensitivity (CellTiter-Glo); assay type: cell-based; conditions: U937, AML/histiocytic lymphoma M5; 48 h; read-out: IC50
Protocol: as §1, §2

TC-71 cells = assay: Cell line drug sensitivity (CellTiter-Glo); assay type: cell-based; conditions: TC-71, Ewing's sarcoma; 48 h; read-out: IC50
Protocol: as §1, §2

HL-60 cells = assay: Cell line drug sensitivity (CellTiter-Glo); assay type: cell-based; conditions: HL-60, AML M2; 48 h; read-out: IC50
Protocol: as §1, §2

IMR-5 cells = assay: Cell line drug sensitivity (CellTiter-Glo); assay type: cell-based; conditions: IMR-5, Neuroblastoma; 48 h; read-out: IC50
Protocol: as §1, §2

SET-2 cells = assay: Cell line drug sensitivity (CellTiter-Glo); assay type: cell-based; conditions: SET-2, AML/MPN; 48 h; read-out: IC50
Protocol: as §1, §2

THP-1 cells = assay: Cell line drug sensitivity (CellTiter-Glo); assay type: cell-based; conditions: THP-1, AML M5; 48 h; read-out: IC50
Protocol: as §1, §2

RDES-1 cells = assay: Cell line drug sensitivity (CellTiter-Glo); assay type: cell-based; conditions: RDES-1, Ewing's sarcoma; 48 h; read-out: IC50
Protocol: as §1, §2

K562 cells = assay: Cell line drug sensitivity (CellTiter-Glo); assay type: cell-based; conditions: K562, CML/Erythroleukemia; 48 h; read-out: IC50
Protocol: as §1, §2

OCI-AML3 cells = assay: Cell line drug sensitivity (CellTiter-Glo); assay type: cell-based; conditions: OCI-AML3, AML M4; 48 h; read-out: IC50
Protocol: as §1, §2

Kasumi-1 cells = assay: Cell line drug sensitivity (CellTiter-Glo); assay type: cell-based; conditions: Kasumi-1, AML M2; 48 h; read-out: IC50
Protocol: as §1, §2

NOMO-1 cells = assay: Cell line drug sensitivity (CellTiter-Glo); assay type: cell-based; conditions: NOMO-1, AML M5; 48 h; read-out: IC50
Protocol: as §1, §2

ONS-76 cells = assay: Cell line drug sensitivity (CellTiter-Glo); assay type: cell-based; conditions: ONS-76, Medulloblastoma; 48 h; read-out: IC50
Protocol: as §1, §2

MCF7 cells = assay: Cell line drug sensitivity (CellTiter-Glo); assay type: cell-based; conditions: MCF7, Breast; 48 h; read-out: IC50
Protocol: as §1, §2

Jurkat cells = assay: Cell line drug sensitivity (CellTiter-Glo); assay type: cell-based; conditions: T-ALL, 48 h, read-out: IC50
Protocol: as §1, §2

SKM-1 cells = assay: Cell line drug sensitivity (CellTiter-Glo); assay type: cell-based; conditions: SKM-1, AML M5; 48 h; read-out: IC50
Protocol: as §1, §2

HT-1080 cells = assay: Cell line drug sensitivity (CellTiter-Glo); assay type: cell-based; conditions: HT-1080, Fibrosarcoma; 48 h; read-out: IC50
Protocol: as §1, §2

KG-1 cells = assay: Cell line drug sensitivity (CellTiter-Glo); assay type: cell-based; conditions: KG-1, AML M0; 48 h; read-out: IC50
Protocol: as §1, §2

DAOY cells = assay: Cell line drug sensitivity (CellTiter-Glo); assay type: cell-based; conditions: DAOY, Medulloblastoma; 48 h; read-out: IC50
Protocol: as §1, §2

CT26 cells = assay: CT26 cell viability; assay type: cell-based
cancer = conditions: in the clinic; cited from earlier work
THP-1 sgGFP = assay: Pyroptosis IC50 in cells; assay type: cell-based
MB49 tumor = assay: MB49 efficacy studies; assay type: in vivo, C57BL/6 mice
MV4;11 cells = assay: Cell line drug sensitivity (CellTiter-Glo); assay type: cell-based; conditions: MV4;11, AML M5; 48 h; read-out: IC50
CT26 tumor = assay type: in vivo; conditions: CT26 model
MV4;11 Luc-Neo = assay: Pyroptosis IC50 in cells; assay type: cell-based
G-CSF = assay: Serum cytokine induction in mice (G-CSF screen); assay type: in vivo, BALB/c mice
Source text: No. MKC00B) • IL-18 (R&D Systems, Cat. […] Systems, Cat. No. […])

RAW 264.7 WT cells = assay: Pyroptosis IC50 in cells; assay type: cell-based
RS4;11 cells = assay: Cell line drug sensitivity (CellTiter-Glo); assay type: cell-based; conditions: RS4;11, AML/B-ALL; 48 h; read-out: IC50
NB4 cells = assay: Cell line drug sensitivity (CellTiter-Glo); assay type: cell-based; conditions: NB4, AML/APL M3; 48 h; read-out: IC50

For `CC(C)[C@H](N)C(=O)N1CCC[C@H]1B(O)O` [ARI-2054, Valine-boroProline], the “Increase of MTD dose by addition of a cPLA2 inhibitor” value [1] was “at least 20 fold”, the IC50 (AML cell lines) was greater than 0.1 µM and the IC50 (MOLM-13 cells) was 0.12 µM. The IC50 (HEL cells) was greater than 60 µM, the IC50 (U937 cells) was greater than 60 µM and the IC50 (TC-71 cells) was greater than 60 µM. For the same compound, the IC50 (HL-60 cells) was 0.115 µM, the IC50 (IMR-5 cells) was greater than 60 µM and the IC50 (SET-2 cells) was 0.006 µM. For the same compound, the IC50 (THP-1 cells) was 0.206 µM, the IC50 (RDES-1 cells) was greater than 60 µM and the IC50 (K562 cells) was greater than 60 µM. For the same compound, the IC50 (OCI-AML3 cells) was 0.08 µM, the IC50 (Kasumi-1 cells) was greater than 60 µM and the IC50 (NOMO-1 cells) was 0.16 µM. It also gave an IC50 (ONS-76 cells) greater than 60 µM, an IC50 (MCF7 cells) greater than 60 µM and an IC50 (Jurkat cells) greater than 60 µM. It also gave an IC50 (SKM-1 cells) of 0.044 µM, an IC50 (HT-1080 cells) greater than 60 µM and an IC50 (KG-1 cells) of 0.02 µM. For the same compound, the IC50 (DAOY cells) was greater than 60 µM, the EC50 (CT26 cells) was greater than 1000 µM and the Clinical response (cancer) was “some partial and complete responses”. The Clinical toxicity (cancer) was “discontinued due to dose-limiting toxicity”, the IC50 (THP-1 sgGFP) was 0.168 µM and the “Tumor regression in combination with celecoxib” value (MB49 tumor; 20 microgram dose of Val-boroPro plus celecoxib) was “facilitated the achievement of tumor regression”. The “Antitumor activity in combination with celecoxib” value (MB49 tumor; Val-boroPro plus celecoxib) was “increased the antitumor activity of Val-boroPro markedly (statistically significantly) and in a dose-dependent manner”, the IC50 (MV4;11 cells) was 0.078 µM and the “Inhibition of tumor growth (average)” value (CT26 tumor; 10 micrograms) was “about 30%”. The “Inhibition of tumor growth (average)” value (CT26 tumor; 20 micrograms) was roughly 80%, the IC50 (MV4;11 Luc-Neo) was 0.06 µM and the “Average [G-CSF] at 6 hrs” value (G-CSF; 20 μg/animal PO) was 55000 pg/mL. The “Average [G-CSF] at 6 hrs” value (G-CSF; 20 μg/animal SC) was 97000 pg/mL, the IC50 (RAW 264.7 WT cells) was 0.098 µM and the IC50 (RS4;11 cells) was 0.147 µM. It also gave an IC50 (NB4 cells) of 0.1 µM.
